Drawing on patent US20250019387A1 (Frontier Medicines Corporation, priority 0001, published 2025), this text covers IC50 for 54 molecules.

KRAS G12C and cRAF (Ras-binding domain) interaction, sequence (P01116 other isoform, or with tags, fused parts or gaps G12C/C51S/C80L/C118S): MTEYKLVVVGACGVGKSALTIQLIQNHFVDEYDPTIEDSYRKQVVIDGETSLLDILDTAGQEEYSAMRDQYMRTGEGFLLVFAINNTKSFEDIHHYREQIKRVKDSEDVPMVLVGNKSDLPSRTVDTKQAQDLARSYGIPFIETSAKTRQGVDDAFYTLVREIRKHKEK

This experiment concerns the target KRAS G12C and cRAF (Ras-binding domain) interaction (Homo sapiens (Human), UniProt P01116, C118S/C51S/C80L/G12C). The experiment can be described thus: Inhibition of KRAS G12C and cRAF binding (AlphaScreen). The settings on record: additional exemplary compounds; KRAS G12C and cRAF binding; read-out: RAF1 RBD IC50. The protocol:
Compounds were diluted in 100% DMSO and each compound concentration was spotted at 200 nl/well onto low volume, white 384 well plates. […] Plates were incubated for 19-20 hours. A mixture of RBD and the AlphaScreen streptavidin donor and glutathione acceptor beads diluted in 25 mM Hepes, pH 7.4, 150 mM NaCl, 5 mM MgCl2, 0.01% TritonX-100 and 2% DMSO was then added at 10 ul/well and incubated for 60-90 minutes before the samples were read for emission at 570 nm after excitation of the donor beads at 680 nm. All incubations were performed at room temperature. […] IC50s were determined using nonlinear regression fit of [inhibitor]vs. response (4 parameters). […]
A word on the IC50: it is the concentration needed to halve the response being measured. Turning to `CCOC/C=C/S(=O)(=O)CCN(C)c1nc(OCC23CCCN2CCC3)nc2c1CCN(c1cccc3cccc(Cl)c13)C2`, the IC50 is > 500 nM.
Take `C=CC(=O)CN(C)c1nc(OC[C@@H]2CCCN2C)nc2c1CCN(c1cccc3ccccc13)C2`: the IC50 lay within 100 to 500 nM.
As for `COC/C=C/C(=O)N1CC[C@@H](N(C)c2nc(OCC34CCCN3CCC4)nc3c2CCN(c2cccc4cccc(Cl)c24)C3)C1`, the IC50 lay in the range of 100 to 500 nM.
With `CC(C)C/C=C/S(=O)(=O)CCN(C)c1nc(OCC23CCCN2CCC3)nc2c1CCN(c1cccc3cccc(Cl)c13)C2`, the IC50 was > 500 nM.
As for `C=CC(=O)N1CC(CN(C)c2nc(OCC34CCCN3CCC4)nc3c2CCN(c2cccc4cccc(Cl)c24)C3)C1`, the figure is 100 to 500 nM; as for `C=CC(=O)CCN(C)c1nc(OC[C@@H]2CCCN2C)nc2c1CCN(c1cccc3ccccc13)C2`, > 500 nM; as for `C=CC(=O)N1CC(CN(C)c2nc(OC[C@@]34CCCN3C[C@H](F)C4)nc3c2CCN(c2cccc4cccc(Cl)c24)C3)C1`, 100 to 500 nM.
As for `CN(c1nc(OCC23CCCN2CCC3)nc2c(F)c(-c3cccc4cccc(Cl)c34)ncc12)[C@@H]1CCN(C(=O)/C=C/c2cnccn2)C1`, the figure is > 500 nM; as for `C=CC(=O)N1CC[C@@H](Nc2nc(OC[C@@]34CCCN3C[C@H](F)C4)nc3c2CCN(c2cccc4cccc(Cl)c24)C3)C1`, > 500 nM; as for `C=CC(=O)N1CC(CNc2nc(OC[C@@]34CCCN3C[C@H](F)C4)nc3c2CCN(c2cccc4cccc(Cl)c24)C3)C1`, > 500 nM.
Consider `C=CS(=O)(=O)CCN(C)c1nc(OC[C@@H]2CCCN2C)nc2c1CCN(c1cccc3ccc(F)c(Cl)c13)C2`, for which the IC50 is 100 to 500 nM.
To `CN(c1nc(OC[C@@]23CCCN2C[C@H](F)C3)nc2c1CCN(c1cccc3cccc(Cl)c13)C2)[C@@H]1CCN(C(=O)/C=C/c2ncn(C)n2)C1` belongs > 500 nM; to `C=CC(=O)N1CC(CN(C)c2nc(OC[C@@]34CCCN3C[C@H](O)C4)nc3c(F)c(-c4cccc5cccc(Cl)c45)ncc23)C1`, > 500 nM.
For the molecule `CN(c1nc(OC[C@@]23CCCN2C[C@H](F)C3)nc2c(F)c(-c3cccc4ccc(F)c(Cl)c34)ncc12)[C@@H]1CCN(C(=O)/C=C/C2CNC2)C1`, the IC50 is 100 to 500 nM.
On to `C=CC(=O)N1C[C@H](N(C)c2nc(OC[C@@]34CCCN3C[C@H](F)C4)nc3c2CCN(c2cccc4cccc(Cl)c24)C3)C[C@H]1CC#N`, for which the IC50 lay within 100 to 500 nM.
With `C=CC(=O)N1C[C@@H](F)[C@@H](N(C)c2nc(OC[C@@]34CCCN3C[C@H](F)C4)nc3c(F)c(-c4cccc5cccc(Cl)c45)ncc23)C1`, the IC50 was > 500 nM.
As for `C=CC(=O)N1CC[C@@H](N(C)c2nc(OC[C@@]34CCCN3C[C@H](F)C4)nc3c(F)c(-c4cc(OC(F)F)cc5ccccc45)ncc23)C1`, the figure is > 500 nM; as for `CN(c1nc(OCC23CCCN2CCC3)nc2c(F)c(-c3cccc4cccc(Cl)c34)ncc12)[C@@H]1CCN(C(=O)/C=C/c2nnn(C)n2)C1`, > 500 nM; as for `C=CC(=O)N1CC[C@@H](N(C)c2nc(OC[C@@]34CCCN3C[C@H](F)C4)nc3c(F)c(-c4cc(C(F)F)cc5ccccc45)ncc23)C1`, > 500 nM.
Regarding `C=CC(=O)N1C[C@@H](F)[C@H](N(C)c2nc(OC[C@@]34CCCN3C[C@H](F)C4)nc3c(F)c(-c4cccc5cccc(Cl)c45)ncc23)C1`, the IC50 was > 500 nM.
Take `CN(c1nc(OC[C@@]23CCCN2C[C@H](F)C3)nc2c(F)c(-c3cccc4cccc(Cl)c34)ncc12)[C@@H]1CCN(C(=O)/C=C/c2ccncn2)C1`: the IC50 was > 500 nM.
On to `CN(c1nc(OC[C@@]23CCCN2C[C@H](F)C3)nc2c1CCN(c1cccc3cccc(Cl)c13)C2)[C@@H]1CCN(C(=O)/C=C/c2ccncn2)C1`, for which the IC50 is > 500 nM.
Consider `Cc1nsc(/C=C/C(=O)N2C[C@@H](F)[C@H](N(C)c3nc(OC[C@@]45CCCN4C[C@H](F)C5)nc4c(F)c(-c5cccc6cccc(Cl)c56)ncc34)C2)n1`, for which the IC50 was > 500 nM.
On to `Cc1nccc(/C=C/C(=O)N2C[C@@H](F)[C@H](N(C)c3nc(OC[C@@]45CCCN4C[C@H](F)C5)nc4c(F)c(-c5cccc6cccc(Cl)c56)ncc34)C2)n1`, for which the IC50 is > 500 nM.
As for `CN(c1nc(OC[C@@]23CCCN2C[C@H](F)C3)nc2c(F)c(-c3cccc4cccc(Cl)c34)ncc12)[C@@H]1CCN(C(=O)/C=C/c2ncc(F)cn2)C1`, the figure is > 500 nM; as for `CN(c1nc(OC[C@@]23CCCN2C[C@H](F)C3)nc2c(F)c(-c3cccc4cccc(Cl)c34)ncc12)[C@@H]1CCN(C(=O)/C=C/CN2CCCS2(=O)=O)C1`, 100 to 500 nM; as for `C=CC(=O)N1C[C@@H](O)[C@@H](Nc2nc(OC[C@@]34CCCN3C[C@H](F)C4)nc3c(F)c(-c4cccc5cccc(Cl)c45)ncc23)C1`, > 500 nM.
For the molecule `C=CC(=O)N1C[C@H](Nc2nc(OC[C@@]34CCCN3C[C@H](F)C4)nc3c(F)c(-c4cccc5cccc(Cl)c45)ncc23)[C@@H](C)C1`, the IC50 is > 500 nM.
To `Cc1nccc(/C=C/C(=O)N2CC3CC(C2)N3c2nc(OC[C@@]34CCCN3C[C@H](F)C4)nc3c(F)c(-c4cccc5cccc(Cl)c45)ncc23)n1` belongs > 500 nM; to `Cc1nccc(/C=C/C(=O)N2C3CC2CN(c2nc(OC[C@@]45CCCN4C[C@H](F)C5)nc4c(F)c(-c5cccc6cccc(Cl)c56)ncc24)C3)n1`, > 500 nM; to `CN(C)C/C=C/C(=O)N1CCC(N(C)c2nc(OC[C@@H]3CCCN3C)nc3c2CCN(c2cccc4cccc(Cl)c24)C3)C1` (stereo partly drawn), 100 to 500 nM.
Regarding `CC(C)c1noc(/C=C/C(=O)N2CC3CC(C2)N3c2nc(OC[C@@]34CCCN3C[C@H](F)C4)nc3c(F)c(-c4cccc5cccc(Cl)c45)ncc23)n1`, the IC50 was > 500 nM.
Consider `CC(C)c1noc(/C=C/C(=O)N2C3CC2CN(c2nc(OC[C@@]45CCCN4C[C@H](F)C5)nc4c(F)c(-c5cccc6cccc(Cl)c56)ncc24)C3)n1`, for which the IC50 was > 500 nM.
In the case of `Cc1nccc(/C=C/C(=O)N2C[C@H]3C[C@@H]2CN3c2nc(OC[C@@]34CCCN3C[C@H](F)C4)nc3c(F)c(-c4cccc5cccc(Cl)c45)ncc23)n1`, the IC50 is > 500 nM.
To `CC(C)c1noc(/C=C/C(=O)N2C[C@H]3C[C@@H]2CN3c2nc(OC[C@@]34CCCN3C[C@H](F)C4)nc3c(F)c(-c4cccc5cccc(Cl)c45)ncc23)n1` belongs > 500 nM.
Turning to `Cc1nccc(/C=C/C(=O)N2CCC[C@H](Nc3nc(OC[C@@]45CCCN4C[C@H](F)C5)nc4c(F)c(-c5cccc6cccc(Cl)c56)ncc34)C2)n1`, the IC50 is > 500 nM.
On to `CN(CC1(C)CN(C#N)C1)c1nc(OC[C@@H]2CCCN2C)nc2c1CCN(c1cccc3cccc(Cl)c13)C2`, for which the half-inhibitory concentration (IC50) was > 500 nM.
As to `Cc1nccc(/C=C/C(=O)N2CC3(C2)CN(c2nc(OC[C@@]45CCCN4C[C@H](F)C5)nc4c(F)c(-c5cccc6cccc(Cl)c56)ncc24)C3)n1`, the IC50 is > 500 nM.
Take `Cc1nccc(/C=C/C(=O)N2CC3(CCN(c4nc(OC[C@@]56CCCN5C[C@H](F)C6)nc5c(F)c(-c6cccc7cccc(Cl)c67)ncc45)C3)C2)n1`: the IC50 was > 500 nM.
For `C=CC(=O)N1CC[C@@H](N(C)c2nc(OC[C@@]34CCCN3C[C@H](F)C4)nc3c(F)c(-c4cccc5c(Cl)cc(F)cc45)ncc23)C1`, the IC50 is > 500 nM.
For the molecule `Cc1nccc(/C=C/C(=O)N2CCC(N(C)c3nc(OC[C@@]45CCCN4C[C@H](F)C5)nc4c(F)c(-c5cccc6cccc(Cl)c56)ncc34)CC2)n1`, the IC50 is > 500 nM.
For `Cc1nccc(/C=C/C(=O)N2CCC3(C2)CN(c2nc(OC[C@@]45CCCN4C[C@H](F)C5)nc4c(F)c(-c5cccc6cccc(Cl)c56)ncc24)C3)n1`, the IC50 was > 500 nM.
Take `Cc1nccc(/C=C/C(=O)N2CCC23CN(c2nc(OC[C@@]45CCCN4C[C@H](F)C5)nc4c(F)c(-c5cccc6cccc(Cl)c56)ncc24)C3)n1`: the 50% inhibitory concentration (IC50) is > 500 nM.
As to `C=CC(=O)N1CC[C@@H](N(CC(F)(F)F)c2nc(OC[C@@]34CCCN3C[C@H](F)C4)nc3c(F)c(-c4cccc5cccc(Cl)c45)ncc23)C1`, the IC50 is > 500 nM.
Regarding `C=CS(=O)(=O)CCN(C)c1nc(OC[C@@H]2CCCN2C)nc2c(F)c(-c3cccc4cccc(Cl)c34)ncc12`, the IC50 was in the range of 100 to 500 nM.
Regarding `Cc1nccc(/C=C/C(=O)N2CCCN(c3nc(OC[C@@]45CCCN4C[C@H](F)C5)nc4c(F)c(-c5cccc6cccc(Cl)c56)ncc34)CC2)n1`, the IC50 is > 500 nM.
In the case of `CN1CCC1/C=C/C(=O)N1CCCN(c2nc(OC[C@@]34CCCN3C[C@H](F)C4)nc3c(F)c(-c4cccc5cccc(Cl)c45)ncc23)CC1` (stereo partly drawn), the IC50 is > 500 nM.
To `O=C(/C=C/CN1CCOCC1)N1CCCN(c2nc(OC[C@@]34CCCN3C[C@H](F)C4)nc3c(F)c(-c4cccc5cccc(Cl)c45)ncc23)CC1` belongs > 500 nM; to `C=CC(=O)N1C[C@@H](C)[C@@H](N(C)c2nc(OC[C@@]34CCCN3C[C@H](F)C4)nc3c(F)c(-c4cccc5cccc(Cl)c45)ncc23)C1`, > 500 nM.
To `C=CS(=O)(=O)[C@H]1C[C@H](N(C)c2nc(OCC34CCCN3CCC4)nc3c2CCN(c2cccc4cccc(Cl)c24)C3)C1` belongs 100 to 500 nM.
For the molecule `C=CC(=O)N1CC[C@@H](N(C)c2nc(OC[C@@]34CCCN3C[C@H](F)C4)nc3c(F)c(-c4cccc5c(C)c(F)ccc45)ncc23)C1`, the IC50 is > 500 nM.
In the case of `Cc1nccc(/C=C/C(=O)N2C[C@@H]3CN(c4nc(OC[C@@]56CCCN5C[C@H](F)C6)nc5c(F)c(-c6cccc7cccc(Cl)c67)ncc45)C[C@@H]3C2)n1`, the concentration for half-maximal inhibition (IC50) was > 500 nM.
Regarding `O=C(/C=C/CN1CCOCC1)N1CC2(CCN(c3nc(OC[C@@]45CCCN4C[C@H](F)C5)nc4c(F)c(-c5cccc6cccc(Cl)c56)ncc34)C2)C1`, the IC50 was > 500 nM.
As to `O=C(/C=C/CN1CCOCC1)N1CC2(C1)CN(c1nc(OC[C@@]34CCCN3C[C@H](F)C4)nc3c(F)c(-c4cccc5cccc(Cl)c45)ncc13)C2`, the IC50 is > 500 nM.
